# Measured values from patent US11673890B2, “N1-pyrazolospiroketone acetyl-CoA carboxylase inhibitors” (Pfizer Inc., priority 2010, dated 2023).
# Where two headings read alike, the source gives them in different places.
# Legend:
# [1] = target: T1, recombinant human ACC2 (rhACC2) (Homo sapiens, UniProt O00763, V2141I); assay: recombinant hACC2 Transcreener assay (ADP detection FP); assay type: biochemical; conditions: 50 μM ATP, minimum of n=3
# T1 construct: a full length Cytomax clone of ACC2 was purchased from Cambridge Bioscience Limited; made in house; host or cells: CHO cells (tetracycline-inducible, pcDNA5 FRT TO-TOPO)
# Experimental: For example direct inhibition of ACC activity, for the compound of Formula (1) was determined using preparations of recombinant human ACC1 (rhACC1) and recombinant human ACC2 (rhACC2). Representative sequences of the recombinant human ACC1 and ACC2 that can be used in the assay are provided in FIG. 1 (SEQ ID NO. 1) and FIG. 2 (SEQ. ID NO. 2), respectively.
# [3] Preparation of rhACC2. Human ACC2 inhibition was measured using purified recombinant human ACC2 (hrACC2). Briefly, a full length Cytomax clone of ACC2 was purchased from Cambridge Bioscience Limited and was sequenced and subcloned into PCDNA5 FRT TO-TOPO (Invitrogen, Carlsbad, Calif.). The ACC2 was expressed in CHO cells by tetracycline induction and harvested in 5 liters of DMEM/F12 with glutamine, biotin, hygromycin and blasticidin with 1 μg/mL tetracycline (Invitrogen, Carlsbad, Calif.). The conditioned medium containing ACC2 was then applied to a Softlink Soft Release Avidin column (Promega, Madison, Wis.) and eluted with 5 mM biotin. 4 mgs of ACC2 were eluted at a concentration of 0.05 mg/mL (determined by A280) with an estimated purity of 95% ([…]). The purified ACC2 was dialyzed in 50 mM Tris, 200 mM NaCl, 4 mM DTT, 2 mM EDTA, and 5% glycerol. The pooled protein was frozen and stored at −80° C., with no loss of activity upon thawing. For measurement of ACC2 activity and assessment of ACC2 inhibition, test compounds were dissolved in DMSO and added to the rhACC2 enzyme as a 5× stock with a final DMSO concentration of 1%.
# [4] Measurement of human ACC2 inhibition. hACC2 was assayed in a Costar #3676 (Costar, Cambridge, Mass.) 384-well plate using the Transcreener ADP detection FP assay kit (Bellbrook Labs, Madison, Wis.) using the manufacturer's recommended conditions for a 50 uM ATP reaction. The final conditions for the assay were 50 mM HEPES, pH 7.2, 5 mM MgCl2, 5 mM tripotassium citrate, 2 mM DTT, 0.1 mg/mL BSA, 30 μM acetyl-CoA, 50 μM ATP, and 8 mM KHCO3. Typically, a 10 μl reaction was run for 50 min at 25° C., and 10 μl of Transcreener stop and detect buffer was added and the combination incubated at room temp for an additional 1 hour. The data was acquired on an Envision Fluorescence reader (Perkinelmer) using a 620 excitation Cy5 FP general dual mirror, 620 excitation Cy5 FP filter, 688 emission (S) and a 688 (P) emission filter.
# The results using the recombinant hACC1 and recombinant hACC2 Transcreener assays described above are summarized in the table below for the Compounds of Formula (I) exemplified in the Examples above. All of the examples in both assays were run with a minimum of n=3.
# [2] = target: T2, recombinant human ACC1 (rhACC1) (Homo sapiens, UniProt Q13085, DEL44-44); assay: recombinant hACC1 Transcreener assay (ADP detection FP); assay type: biochemical
# T2 construct: infected with recombinant baculovirus containing full length human ACC1 cDNA; made in house; host or cells: SF9 insect cells (baculovirus)
# Experimental: For example direct inhibition of ACC activity, for the compound of Formula (1) was determined using preparations of recombinant human ACC1 (rhACC1) and recombinant human ACC2 (rhACC2).
# [1] Preparation of rhACC1. Two liters of SF9 cells, infected with recombinant baculovirus containing full length human ACC1 cDNA, were suspended in ice-cold lysis buffer (25 mM Tris, pH 7.5; 150 mM NaCl; 10% glycerol; 5 mM imidazole (EMD Bioscience; Gibbstown, N.J.); 2 mM TCEP (BioVectra; Charlottetown, Canada); Benzonase nuclease (10000 U/100 g cell paste; Novagen; Madison, Wis.); EDTA-free protease inhibitor cocktail (1 tab/50 mL; Roche Diagnostics; Mannheim, Germany). Cells were lysed by 3 cycles of freeze-thaw and centrifuged at 40,000×g for 40 minutes (4° C.). Supernatant was directly loaded onto a HisTrap FF crude column (GE Healthcare; Piscataway, N.J.) and eluted with an imidazole gradient up to 0.5 M over 20 column volumes (CV). ACC1-containing fractions were pooled and diluted 1:5 with 25 mM Tris, pH 7.5, 2 mM TCEP, 10% glycerol and direct loaded onto a CaptoQ (GE Healthcare) column and eluted with an NaCl gradient up to 1 M over 20 CV's. Phosphate groups were removed from purified ACC1 by incubation with lambda phosphatase (100 U/10 μM target protein; New England Biolabs; Beverly, Mass.) for 14 hours at 4° C.; okadaic acid was added (1 μM final concentration; Roche Diagnostics) to inhibit the phosphatase. Purified ACC1 was exchanged into 25 mM Tris, pH 7.5, 2 mM TCEP, 10% glycerol, 0.5 M NaCl by 6 hour dialysis at 4° C. Aliquots were prepared and frozen at −80° C.
# [2] […] The final conditions for the assay were 50 mM HEPES, pH 7.2, 10 mM MgCl2, 7.5 mM tripotassium citrate, 2 mM DTT, 0.1 mg/mL BSA, 30 μM acetyl-CoA, 50 μM ATP, and 10 mM KHCO3. Typically, a 10 μl reaction was run for 120 min at 25° C., and 10 μl of Transcreener stop and detect buffer was added and the combination incubated at room temp for an additional 1 hour.
# All of the examples in both assays were run with a minimum of n=3.
# [3] = recombinant hACC1 Transcreener assay, 50 μM ATP, minimum of n=3, read-out: hACC1
# T1 sequence (O00763 whole entry V2141I): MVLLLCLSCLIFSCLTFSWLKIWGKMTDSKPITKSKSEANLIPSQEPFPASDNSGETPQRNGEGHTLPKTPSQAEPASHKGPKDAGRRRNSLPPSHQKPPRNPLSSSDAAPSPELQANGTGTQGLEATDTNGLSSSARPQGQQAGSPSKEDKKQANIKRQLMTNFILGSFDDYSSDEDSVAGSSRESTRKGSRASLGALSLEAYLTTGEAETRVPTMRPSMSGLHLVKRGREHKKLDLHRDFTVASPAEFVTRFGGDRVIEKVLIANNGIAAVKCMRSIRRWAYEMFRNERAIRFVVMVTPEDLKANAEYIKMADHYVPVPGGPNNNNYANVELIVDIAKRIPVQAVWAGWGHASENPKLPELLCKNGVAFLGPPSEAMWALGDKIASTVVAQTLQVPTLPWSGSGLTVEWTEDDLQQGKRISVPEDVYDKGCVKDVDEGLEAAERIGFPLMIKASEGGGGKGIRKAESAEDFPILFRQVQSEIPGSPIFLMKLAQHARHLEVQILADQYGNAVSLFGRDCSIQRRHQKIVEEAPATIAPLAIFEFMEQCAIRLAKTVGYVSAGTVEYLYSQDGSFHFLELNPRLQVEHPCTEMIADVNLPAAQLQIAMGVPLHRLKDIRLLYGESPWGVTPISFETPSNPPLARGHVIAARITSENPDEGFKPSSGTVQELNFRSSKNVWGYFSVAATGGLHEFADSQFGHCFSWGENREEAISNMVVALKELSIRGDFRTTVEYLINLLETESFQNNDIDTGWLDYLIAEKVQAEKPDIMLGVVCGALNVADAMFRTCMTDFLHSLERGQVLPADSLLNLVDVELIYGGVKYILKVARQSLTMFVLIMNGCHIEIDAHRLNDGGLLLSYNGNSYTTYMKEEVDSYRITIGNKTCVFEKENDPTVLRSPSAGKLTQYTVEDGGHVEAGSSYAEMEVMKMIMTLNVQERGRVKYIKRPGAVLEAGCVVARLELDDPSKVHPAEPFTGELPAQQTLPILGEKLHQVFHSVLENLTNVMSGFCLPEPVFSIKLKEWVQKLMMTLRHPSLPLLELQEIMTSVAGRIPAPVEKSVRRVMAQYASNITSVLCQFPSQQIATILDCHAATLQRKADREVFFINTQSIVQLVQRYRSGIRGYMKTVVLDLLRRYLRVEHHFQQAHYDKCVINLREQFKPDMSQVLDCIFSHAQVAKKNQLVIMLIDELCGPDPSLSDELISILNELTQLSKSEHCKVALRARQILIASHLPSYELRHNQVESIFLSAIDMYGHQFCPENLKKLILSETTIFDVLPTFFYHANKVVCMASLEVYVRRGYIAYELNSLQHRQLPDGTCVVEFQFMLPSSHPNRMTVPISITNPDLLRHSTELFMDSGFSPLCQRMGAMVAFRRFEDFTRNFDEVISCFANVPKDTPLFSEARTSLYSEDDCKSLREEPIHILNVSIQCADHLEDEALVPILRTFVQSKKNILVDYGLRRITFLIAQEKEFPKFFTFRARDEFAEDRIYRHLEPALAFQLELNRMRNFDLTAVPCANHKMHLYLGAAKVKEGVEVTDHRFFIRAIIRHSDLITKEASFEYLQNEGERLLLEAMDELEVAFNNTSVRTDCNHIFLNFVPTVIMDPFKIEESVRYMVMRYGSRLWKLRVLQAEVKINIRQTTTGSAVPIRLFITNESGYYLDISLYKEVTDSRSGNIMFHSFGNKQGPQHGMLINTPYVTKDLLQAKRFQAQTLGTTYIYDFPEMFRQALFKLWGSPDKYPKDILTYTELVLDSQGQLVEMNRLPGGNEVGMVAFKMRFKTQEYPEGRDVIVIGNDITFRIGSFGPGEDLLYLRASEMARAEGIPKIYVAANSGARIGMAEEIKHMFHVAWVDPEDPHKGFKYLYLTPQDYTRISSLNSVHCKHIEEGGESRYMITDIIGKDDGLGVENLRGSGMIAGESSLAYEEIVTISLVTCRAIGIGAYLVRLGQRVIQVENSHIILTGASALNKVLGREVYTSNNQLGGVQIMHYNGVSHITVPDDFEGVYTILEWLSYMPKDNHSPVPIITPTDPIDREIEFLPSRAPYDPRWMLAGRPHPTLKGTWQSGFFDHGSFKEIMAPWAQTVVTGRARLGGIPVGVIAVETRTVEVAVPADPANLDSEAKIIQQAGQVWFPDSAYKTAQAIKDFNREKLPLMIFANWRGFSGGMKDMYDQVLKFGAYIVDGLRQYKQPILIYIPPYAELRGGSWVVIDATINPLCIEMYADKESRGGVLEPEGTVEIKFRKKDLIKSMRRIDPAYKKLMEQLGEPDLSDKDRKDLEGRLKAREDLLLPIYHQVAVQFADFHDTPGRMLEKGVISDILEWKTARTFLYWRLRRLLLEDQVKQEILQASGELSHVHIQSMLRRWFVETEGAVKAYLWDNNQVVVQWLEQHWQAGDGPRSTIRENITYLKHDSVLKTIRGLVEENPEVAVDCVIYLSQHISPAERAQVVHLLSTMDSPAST
structure (smiles),measurement,setting,value
"COc1cc(C(=O)N2CCC3(CC2)CC(=O)c2c(cnn2C(C)C)C3)cc(-c2ccc(C(=O)O)cc2)n1 [Example 9, 4-{4-[(1-isopropyl-7-oxo-1,4,6,7-tetrahydro-1′H-spiro[indazole-5,4′-piperidin]-1′-yl)carbonyl]-6-methoxypyridin-2-yl}benzoic acid]",IC50,[1],29.7 nM
same,IC50,[2],30.9 nM
"COc1cc(C(=O)N2CCC3(CC2)CC(=O)c2c(cnn2C(C)(C)C)C3)cc(-c2ccc(C(=O)O)cc2)n1 [Example 10, 4-{4-[(1-tert-butyl-7-oxo-1,4,6,7-tetrahydro-1′H-spiro[indazole-5,4′-piperidin]-1′-yl)carbonyl]-6-methoxypyridin-2-yl}benzoic acid]",IC50,[1],35.5 nM
same,IC50,[2]; [3],30.1 nM
"COc1cc(C(=O)N2CCC3(CC2)CC(=O)c2c(cnn2C(C)(C)C)C3)cc(-c2cccc(C(=O)O)c2)n1 [Example 11, 3-{4-[(1-tert-butyl-7-oxo-1,4,6,7-tetrahydro-1′H-spiro[indazole-5,4′-piperidin]-1′-yl)carbonyl]-6-methoxypyridin-2-yl}benzoic acid]",IC50,[1],268 nM
same,IC50,[2]; [3],180 nM
"CC(C)n1ncc2c1C(=O)CC1(CCN(C(=O)c3cc4c(-c5cccc(C(=O)O)c5)cccc4[nH]3)CC1)C2 [Example 15, 3-{2-[(1-isopropyl-7-oxo-1,4,6,7-tetrahydro-1′H-spiro[indazole-5,4′-piperidin]-1′-yl)carbonyl]-1H-indol-4-yl}benzoic acid]",IC50,[1],7.88 nM
same,IC50,[2]; [3],6.11 nM
"CC(C)n1ncc2c1C(=O)CC1(CCN(C(=O)c3cc4c(-c5ccc(C(=O)O)cc5)cccc4[nH]3)CC1)C2 [Example 16, 4-{2-[(1-isopropyl-7-oxo-1,4,6,7-tetrahydro-1′H-spiro[indazole-5,4′-piperidin]-1′-yl)carbonyl]-1H-indol-4-yl}benzoic acid]",IC50,[1],11.6 nM
same,IC50,[2]; [3],9.75 nM
"CC(C)(C)n1ncc2c1C(=O)CC1(CCN(C(=O)c3cc4c(-c5cccc(C(=O)O)c5)cccc4[nH]3)CC1)C2 [Example 17, 3-{2-[(1-tert-butyl-7-oxo-1,4,6,7-tetrahydro-1′H-spiro[indazole-5,4′-piperidin]-1′-yl)carbonyl]-1H-indol-4-yl}benzoic acid]",IC50,[1],21.6 nM
same,IC50,[2]; [3],15.6 nM
"CC(C)(C)n1ncc2c1C(=O)CC1(CCN(C(=O)c3cc4c(-c5ccc(C(=O)O)cc5)cccc4[nH]3)CC1)C2 [Example 18, 4-{2-[(1-tert-butyl-7-oxo-1,4,6,7-tetrahydro-1′H-spiro[indazole-5,4′-piperidin]-1′-yl)carbonyl]-1H-indol-4-yl}benzoic acid]",IC50,[1],14.6 nM
same,IC50,[2]; [3],4.5 nM
"CCNc1nc(-c2cccc(C(=O)O)c2)ccc1C(=O)N1CCC2(CC1)CC(=O)c1c(cnn1C(C)(C)C)C2 [Example 19, 3-{5-[(1-tert-butyl-7-oxo-1,4,6,7-tetrahydro-1′H-spiro[indazole-5,4′-piperidin]-1′-yl)carbonyl]-6-(ethylamino)pyridin-2-yl}benzoic acid]",IC50,[1],487 nM
same,IC50,[2]; [3],837 nM
"CC(C)(C)n1ncc2c1C(=O)CC1(CCN(C(=O)c3cc(C(=O)O)cc(-c4ncco4)c3)CC1)C2 [Example 21, 3-[(1-tert-butyl-7-oxo-1,4,6,7-tetrahydro-1′H-spiro[indazole-5,4′-piperidin]-1′-yl)carbonyl]-5-(1,3-oxazol-2-yl)benzoic acid]",IC50,[1],507 nM
same,IC50,[2]; [3],627 nM
"CC(C)n1ncc2c1C(=O)CC1(CCN(C(=O)c3cc(C(=O)O)cc(-c4ncco4)c3)CC1)C2 [Example 22, 3-[(1-isopropyl-7-oxo-1,4,6,7-tetrahydro-1′H-spiro[indazole-5,4′-piperidin]-1′-yl)carbonyl]-5-(1,3-oxazol-2-yl)benzoic acid]",IC50,[1],685 nM
same,IC50,[2]; [3],1010 nM
"CC(C)Nc1nc(-c2cccc(C(=O)O)c2)ccc1C(=O)N1CCC2(CC1)CC(=O)c1c(cnn1C(C)C)C2 [Example 23, 3-{6-(isopropylamino)-5-[(1-isopropyl-7-oxo-1,4,6,7-tetrahydro-1′H-spiro[indazole-5,4′-piperidin]-1′-yl)carbonyl]pyridin-2-yl}benzoic acid]",IC50,[1],420 nM
same,IC50,[2]; [3],1370 nM
"CC(C)Nc1nc(-c2ccc(C(=O)O)cc2)ccc1C(=O)N1CCC2(CC1)CC(=O)c1c(cnn1C(C)(C)C)C2 [Example 24, 4-{5-[(1-tert-butyl-7-oxo-1,4,6,7-tetrahydro-1′H-spiro[indazole-5,4′-piperidin]-1′-yl)carbonyl]-6-(isopropylamino)pyridin-2-yl}benzoic acid]",IC50,[1],557 nM
same,IC50,[2]; [3],3140 nM
"CC(C)Nc1nc(-c2ccc(C(=O)O)cc2)ccc1C(=O)N1CCC2(CC1)CC(=O)c1c(cnn1C(C)C)C2 [Example 25, 4-{6-(isopropylamino)-5-[(1-isopropyl-7-oxo-1,4,6,7-tetrahydro-1′H-spiro[indazole-5,4′-piperidin]-1′-yl)carbonyl]pyridin-2-yl}benzoic acid]",IC50,[1],202 nM
same,IC50,[2]; [3],600 nM
"CC(C)n1ncc2c1C(=O)CC1(CCN(C(=O)c3cc(-c4ccc(C(=O)O)cc4)c4cn[nH]c4c3)CC1)C2 [Example 26, 4-{6-[(1-isopropyl-7-oxo-1,4,6,7-tetrahydro-1′H-spiro[indazole-5,4′-piperidin]-1′-yl)carbonyl]-1H-indazol-4-yl}benzoic acid]",IC50,[1],7.49 nM
same,IC50,[2]; [3],20.4 nM
"CC(C)n1ncc2c1C(=O)CC1(CCN(C(=O)c3cc(-c4ccc(C(=O)O)cc4)[nH]c(=O)c3)CC1)C2 [Example 27, 4-{4-[(1-isopropyl-7-oxo-1,4,6,7-tetrahydro-1′H-spiro[indazole-5,4′-piperidin]-1′-yl)carbonyl]-6-oxo-1,6-dihydropyridin-2-yl}benzoic acid]",IC50,[1],1140 nM
same,IC50,[2]; [3],2910 nM
"CC(C)n1ncc2c1C(=O)CC1(CCN(C(=O)c3cc4c(-c5cccc(C(=O)O)c5)ccnc4[nH]3)CC1)C2 [Example 28, 3-{2-[(1-isopropyl-7-oxo-1,4,6,7-tetrahydro-1′H-spiro[indazole-5,4′-piperidin]-1′-yl)carbonyl]-1H-pyrrolo[2,3-b]pyridin-4-yl}benzoic acid]",IC50,[1],5.35 nM
same,IC50,[2]; [3],6.7 nM
"CC(C)n1ncc2c1C(=O)CC1(CCN(C(=O)c3cc4c(-c5ccc(C(=O)O)cc5)ccnc4[nH]3)CC1)C2 [Example 29, 4-{2-[(1-isopropyl-7-oxo-1,4,6,7-tetrahydro-1′H-spiro[indazole-5,4′-piperidin]-1′-yl)carbonyl]-1H-pyrrolo[2,3-b]pyridin-4-yl}benzoic acid]",IC50,[1],6.16 nM
same,IC50,[2]; [3],13.7 nM
